# Results published in paper PMC9505123, “Zeta-Carotene Isomerase (Z-ISO) Is Required for Light-Independent Carotenoid Biosynthesis in the Cyanobacterium Synechocystis sp. PCC 6803” (Microorganisms, 2022).
# Biological target: T1, Synechocystis ZDS (CrtQ) (Synechocystis sp. PCC 6803, UniProt P74306)
# T1 construct: pCDFDuet-1 MCS1, co-expressed with slr1599 (pAH587) or maize Z-ISO (pAH590) in E. coli BL21(DE3) with pAC-ZETAipi
# T1 sequence (P74306 1-489): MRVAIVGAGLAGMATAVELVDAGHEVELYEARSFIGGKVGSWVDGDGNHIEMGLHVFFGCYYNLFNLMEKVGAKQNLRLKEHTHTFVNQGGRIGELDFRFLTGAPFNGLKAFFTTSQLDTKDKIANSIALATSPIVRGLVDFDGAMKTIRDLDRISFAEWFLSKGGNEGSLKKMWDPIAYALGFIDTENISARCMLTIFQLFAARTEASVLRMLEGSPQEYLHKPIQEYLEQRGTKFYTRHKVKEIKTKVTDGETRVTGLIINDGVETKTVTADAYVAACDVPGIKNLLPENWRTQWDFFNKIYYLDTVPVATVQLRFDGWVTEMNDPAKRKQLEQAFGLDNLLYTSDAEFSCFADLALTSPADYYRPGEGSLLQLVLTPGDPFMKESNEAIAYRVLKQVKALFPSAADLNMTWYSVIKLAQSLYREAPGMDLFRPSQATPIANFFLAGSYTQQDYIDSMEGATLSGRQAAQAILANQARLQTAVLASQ
# Experiment: RP-HPLC of carotenoids from dark-grown E. coli co-expressing pAC-ZETAipi and Z-ISO
# Assay type: cell-based
# Conditions: 37 °C, 24 h, substrate formed in situ by Slr1599 or maize Z-ISO, converted to cis-lycopene isomers
smiles,measurement,value
"CC(C)=CCC/C(C)=C/CC\C(C)=C/C=C/C(C)=C/C=C/C=C(C)/C=C/C=C(/C)CC/C=C(\C)CCC=C(C)C [9,9′-di-cis-ζ-carotene]",RP-HPLC of carotenoids from dark-grown E. coli co-expressing pAC-ZETAipi and Z-I,ζ-carotene species were almost completely absent and a variety of new carotenoid species
